Experimental data: US20180207114A1, “ESTROGEN RELATED RECEPTOR GAMMA (ERRgamma) ENHANCES AND MAINTAINS BROWN FAT THERMOGENIC CAPACITY” (Salk Institute for Biological Studies, priority 2015, published 2018)

What was measured:
[1] = system: control flox/flox (WT) and ERRγ ASKO (KO) mice; test: Oxygen consumption (VO2, CLAMS) after intraperitoneal injection of beta adrenergic agonist in mice; format: in vivo, mouse
Description: ERRγ flox/flox mice were crossed with adiponectin-Cre mice (Jackson Laboratory) to generate ERRγ-ASKO mice. ERRγ-ASKO mice and flox/flox control littermates received a standard chow diet (MI laboratory rodent diet 5001, Harlan Teklad) or high fat (60%) diet (F3282, Bio-Serv) and water ad libitum. All mice used for studies were male unless otherwise noted. Mice were housed at thermoneutrality (30° C.) unless otherwise indicated. PPARα null mice were purchased from Jackson laboratory.
Oxygen consumption (VO2) was measured using the Comprehensive Laboratory Animal Monitoring System (CLAMS; Columbus, Ohio). Data were normalized to body weights. Body temperatures were assessed using a RET-3 rectal probe for mice (Physitemp). CL316243 (Sigma) and norepinephrine were intraperitoneally injected into mice at 1 mg/kg body weight.

[2] = biological target: T1, ERRγ (Homo sapiens, UniProt P62508); conditions: for example in the presence of PGC-1a; cited from earlier work
T1 sequence (P62508 1-458): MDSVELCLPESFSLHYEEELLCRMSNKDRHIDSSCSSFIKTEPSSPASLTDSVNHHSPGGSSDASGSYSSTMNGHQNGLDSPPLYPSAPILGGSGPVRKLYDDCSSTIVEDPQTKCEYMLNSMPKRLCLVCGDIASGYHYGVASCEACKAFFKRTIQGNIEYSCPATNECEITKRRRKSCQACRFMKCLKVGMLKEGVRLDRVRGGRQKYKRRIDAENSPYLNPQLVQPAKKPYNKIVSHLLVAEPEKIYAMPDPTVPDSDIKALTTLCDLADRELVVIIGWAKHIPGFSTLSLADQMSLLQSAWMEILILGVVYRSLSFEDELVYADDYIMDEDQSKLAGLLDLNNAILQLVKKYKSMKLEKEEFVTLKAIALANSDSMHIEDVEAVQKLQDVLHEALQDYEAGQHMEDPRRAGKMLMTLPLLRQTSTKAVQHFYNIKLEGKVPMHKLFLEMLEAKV

[3] = biological target: T2, ERRα (Homo sapiens, UniProt P11474); conditions: for example in the presence of PGC-1a; cited from earlier work
T2 sequence (P11474 1-423): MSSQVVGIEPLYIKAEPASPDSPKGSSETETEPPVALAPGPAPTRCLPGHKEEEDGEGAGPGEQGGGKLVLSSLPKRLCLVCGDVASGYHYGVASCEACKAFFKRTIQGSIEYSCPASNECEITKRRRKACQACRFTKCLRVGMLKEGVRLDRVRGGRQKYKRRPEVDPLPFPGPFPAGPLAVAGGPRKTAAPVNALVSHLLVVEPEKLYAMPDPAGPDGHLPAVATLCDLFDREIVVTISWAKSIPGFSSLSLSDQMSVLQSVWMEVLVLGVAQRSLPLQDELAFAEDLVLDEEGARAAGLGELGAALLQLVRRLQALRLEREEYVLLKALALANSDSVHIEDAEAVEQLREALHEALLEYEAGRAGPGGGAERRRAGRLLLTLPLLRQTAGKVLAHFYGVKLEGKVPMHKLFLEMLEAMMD

[4] = biological target: T3, ERRβ (Homo sapiens, UniProt O95718); conditions: for example in the presence of PGC-1a; cited from earlier work
T3 sequence (O95718 1-433): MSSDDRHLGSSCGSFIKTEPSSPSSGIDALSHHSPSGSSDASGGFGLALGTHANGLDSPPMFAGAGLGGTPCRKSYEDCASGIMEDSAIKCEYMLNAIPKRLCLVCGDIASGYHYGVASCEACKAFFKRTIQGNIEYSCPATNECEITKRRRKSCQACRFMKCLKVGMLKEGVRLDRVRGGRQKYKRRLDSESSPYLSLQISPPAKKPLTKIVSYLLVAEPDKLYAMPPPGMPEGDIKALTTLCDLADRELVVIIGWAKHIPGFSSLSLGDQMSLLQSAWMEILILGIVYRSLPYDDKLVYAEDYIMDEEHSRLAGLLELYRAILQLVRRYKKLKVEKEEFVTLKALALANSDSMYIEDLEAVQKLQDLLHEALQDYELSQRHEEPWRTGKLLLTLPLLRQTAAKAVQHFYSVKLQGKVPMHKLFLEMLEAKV

[5] = biological target: T1, ERRγ; conditions: cited from earlier work
[6] = system: differentiated PAZ-6 brown adipocytes; test: Seahorse XF oxygen consumption assay in differentiated PAZ-6 brown adipocytes; format: cell-based, human
Description: PAZ-6 human brown adipocytes were differentiated as previously described (18). Human adipose derived stem cells were cultured as previously described.
Bioenergetic profiles were analyzed using a XF24XF analyzer (Seahorse Bioscience) and the XF Palmitate-BSA FAO Substrate (Seahorse Bioscience).

Compound | activation of ERRγ [2] | activation of ERRα [3] | activation of ERRβ [4] | further results
C[C@H](Cc1ccc2c(c1)OC(C(=O)[O-])(C(=O)[O-])O2)NC[C@H](O)c1cccc(Cl)c1.[Na+].[Na+] [CL316243] | – | – | – | response (VO2, RER) to injection ([1]; ERRγ-ASKO female mice at thermoneutrality, 1 mg/kg BW intraperitoneal): blunted
Cc1cccc(C=NNC(=O)c2ccc(O)cc2)c1 [DY159] | activate | activate | activate | –
O=C(NN=Cc1ccccc1)c1ccc(O)cc1 [DY162] | activate | activate | activate | –
Cc1ccc(/C=N/NC(=O)c2ccc(O)cc2)cc1 [DY163] | activate | activate | activate | –
CCc1ccc(C=NNC(=O)c2ccc(O)cc2)s1 [DY164] | activate | activate | activate | –
Nc1ccc(C(=O)N/N=C/c2ccc(/N=N/c3ccccc3)cc2)cn1 [E6] | – | – | – | selectivity for ERRγ over ERRα and β [5]: selective for ERRγ but not ERRα and β
CC(C)c1ccc(/C=N/NC(=O)c2ccc(O)cc2)cc1 [GSK4716] | – | – | – | Increase in oxygen consumption rate in the presence or absence of palmitate ([6]; differentiated PAZ-6, 10 μM overnight, with vs without palmitate (FIG. 5M)): only occurred in the presence of fatty acids; proton leak or uncoupling ([6]; differentiated PAZ-6 treated overnight with 10 μM vs DMSO vehicle): higher; Oxygen consumption rate ([6]; differentiated PAZ-6 treated overnight with 10 μM vs DMSO vehicle, in the presence of fatty acids (palmitate)): higher
NC[C@H](O)c1ccc(O)c(O)c1 [NE, norepinephrine] | – | – | – | metabolic rate (VO2) response upon injection ([1]; ERRγ-ASKO mice at thermoneutrality, 1 mg/kg intraperitoneal): severely blunted; metabolic rate (oxygen consumption, VO2) upon injection ([1]; control flox/flox mice at thermoneutrality, 1 mg/kg intraperitoneal): increased
